Assays:
[1] = tested on: Human adenovirus type 5 Adenoid 75 strain
[2] = tested on: Poliovirus type 1 Chat strain

## zinc pyrithione
HEp-2 cells
  Cytopathic effect on the cells in the cell culture: showed cytopathic effect
  Lowest ratio of zinc pyrithione solution which does not show cytopathic effect: 0.01%
[1]
  Activity against the virus: 99.9%
  Reduction in virus titration: at least 4 log
  Reduction ratio in virus titration: 4.0 Logarithmic TCID50
  Virus titration with disinfectant: 1.0 Logarithmic TCID50
[2]
  Reduction in virus titration: at least 4 log
  Reduction ratio in virus titration: 4.5 Logarithmic TCID50
  Virus titration with disinfectant: 1.5 Logarithmic TCID50
